35 compounds from patent US20240173419A1, “CDK2 DEGRADERS AND USES THEREOF” (Kymera Therapeutics, Inc., priority 2022, published 2024) can be followed below.

The test deals with T1, CDK2 (Homo sapiens, UniProt P24941).
T1 construct: endogenous in cells; host or cells: MKN1 cells
Put plainly: CDK2 degradation in MKN1 cells (AlphaLISA). It counts as cell-based. The following applies: 14 h incubation; for DC50: read-out: CDK2 degradation 14 h: Mean external-Abs DC50. The method in brief:
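DC50 from four-parameter logistic fit of AlphaLISA CDK2 signal, corrected for no-cell wells. Lysates came from MKN1 cells, 2e4 per well, exposed 14 h at 37° C to compound at 0.001 nM-10 μM (1:5 series, 11 doses) in 0.1% DMSO.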

Take `Cc1cc(S(=O)(=O)NC(C)COC2CCC(CN3CCN(c4ccc5c(c4F)n(C)c(=O)n5C4CCC(=O)NC4=O)CC3)CC2)ccc1Nc1ncc(C(F)(F)F)c(N2CCCC(C)(O)C2)n1` (stereo not shown) [I-844]: the “CDK2 degradation 14 h: Average Dmax %” value is recorded as “A (A (>75% o))” and the DC50 was under 100 nM.
In the same order, the values of `Cc1cc(S(=O)(=O)NC(C)COC2CCC(CN3CCN(c4ccc5c(c4F)n(C)c(=O)n5C4CCC(=O)NC4=O)CC3)CC2)ccc1Nc1ncc(C(F)(F)F)c(C2CCC(C)(O)CC2)n1` (stereo not shown) [I-845] are “B (B (>50% -75%))” and 100 to 500 nM.
In the same order, the values of `Cc1cc(S(=O)(=O)NC(C)COC2CCC(CN3CCN(c4ccc5c(c4F)n(C)c(=O)n5C4CCC(=O)NC4=O)CC3)CC2)ccc1Nc1ncc(C(F)(F)F)c(N2CCCC(C)(O)C2)n1` (stereo not shown) [I-846] are “A (A (>75% o))” and under 100 nM.
In the same order, the values of `Cc1cc(S(=O)(=O)NC2CC(N3CCN(CC4CN(c5cccc6c5n(C)c(=O)n6C5CCC(=O)NC5=O)C4)CC3)C2)ccc1Nc1ncc(C(F)(F)F)c(C2CCC(C)(O)CC2)n1` (stereo not shown) [I-847] are “A (A (>75% o))” and under 100 nM.
For `Cc1cc(S(=O)(=O)NC(C)COC2CCC(CN3CC(c4ccc5c(c4F)n(C)c(=O)n5C4CCC(=O)NC4=O)C3)CC2)ccc1Nc1ncc(C(F)(F)F)c(N2CCCC(C)(O)C2)n1` (stereo not shown) [I-848], the “CDK2 degradation 14 h: Average Dmax %” value was “A (A (>75% o))” and the DC50 was under 100 nM.
In the same order, the values of `Cc1cc(S(=O)(=O)C2CC3(CCN(CC4CCN(c5ccc6c(c5F)n(C)c(=O)n6C5CCC(=O)NC5=O)CC4)CC3)C2)ccc1Nc1ncc(C(F)(F)F)c(N2CCC(C)C(C)(O)C2)n1` (stereo not shown) [I-849] are “B (B (>50% -75%))” and under 100 nM.
In the same order, the values of `Cc1cc(S(=O)(=O)NC(C)COC2CCC(CN3CC(c4cccc5c4n(C)c(=O)n5C4CCC(=O)NC4=O)C3)CC2)ccc1Nc1ncc(C(F)(F)F)c(N2CCCC(C)(O)C2)n1` (stereo not shown) [I-850] are “B (B (>50% -75%))” and under 100 nM.
In the same order, the values of `Cc1cc(S(=O)(=O)NC(C)COC2CCC(CN3CCN(c4cccc5c4n(C)c(=O)n5C4CCC(=O)NC4=O)CC3)CC2)ccc1Nc1ncc(C(F)(F)F)c(N2CCCC(C)(O)C2)n1` (stereo not shown) [I-851] are “A (A (>75% o))” and under 100 nM.
Take `Cc1cc(S(=O)(=O)C2CC3(CCN(CCOC4CN(c5ccc6c(c5F)n(C)c(=O)n6C5CCC(=O)NC5=O)C4)CC3)C2)ccc1Nc1ncc(C(F)(F)F)c(N2CCCC(C)(O)C2)n1` (stereo not shown) [I-853]: the “CDK2 degradation 14 h: Average Dmax %” value was “B (B (>50% -75%))” and the DC50 lay in the range of 100 to 500 nM.
In the same order, the values of `Cc1cc(S(=O)(=O)C2CC3(CCN(CCOC4CN(c5cccc6c5n(C)c(=O)n6C5CCC(=O)NC5=O)C4)CC3)C2)ccc1Nc1ncc(C(F)(F)F)c(N2CCCC(C)(O)C2)n1` (stereo not shown) [I-854] are “B (B (>50% -75%))” and 100 to 500 nM.
As for `Cn1c(=O)n(C2CCC(=O)NC2=O)c2ccc(N3CCC(CN4CCC5(CC4)CC(S(=O)(=O)c4ccc(Nc6ncc(C(F)(F)F)c(N7CCCC(C)(O)C7)n6)c(Cl)c4)C5)CC3)c(F)c21` (stereo not shown) [I-855], the “CDK2 degradation 14 h: Average Dmax %” value is “B (B (>50% -75%))” and the DC50 was under 100 nM.
In the same order, the values of `COCc1cnc(Nc2ccc(S(=O)(=O)C3CC4(CCN(CC5CCN(c6ccc7c(c6F)n(C)c(=O)n7C6CCC(=O)NC6=O)CC5)CC4)C3)cc2C)nc1N1CCCC(C)(O)C1` (stereo not shown) [I-856] are “D (D (<25%))” and over 1000 nM.
For `Cc1cc(S(=O)(=O)NC(C)COC2CCC(CN3CCN(c4ccc5c(c4F)n(C)c(=O)n5C4CCC(=O)NC4=O)CC3)CC2)ccc1Nc1ncc(C(F)(F)F)c(N2CCC(C(C)(C)O)C2)n1` (stereo not shown) [I-857], the “CDK2 degradation 14 h: Average Dmax %” value is on record as “A (A (>75% o))” and the DC50 was under 100 nM.
In the same order, the values of `Cc1cc(S(=O)(=O)NC(C)COC2CCC(CN3CCN(c4ccc5c(c4F)n(C)c(=O)n5C4CCC(=O)NC4=O)CC3)CC2)ccc1Nc1ncc(C(F)(F)F)c(N2CCC(C(C)(C)O)C2)n1` (stereo not shown) [I-858] are “A (A (>75% o))” and under 100 nM.
In the same order, the values of `Cc1cc(S(=O)(=O)NC2CCN(CC3(C)CN(c4ccc(C5CCC(=O)NC5=O)c(Cl)c4)C3)CC2)ccc1Nc1ncc(C(F)(F)F)c(N2CCC[C@](C)(O)C2)n1` (stereo partly shown) [I-910] are “B (B (>50% -75%))” and 100 to 500 nM.
In the same order, the values of `Cc1cc(S(=O)(=O)NC2CC3(C2)CN(CC2CN(c4ccc(C5CCC(=O)NC5=O)c(Cl)c4)C2)C3)ccc1Nc1ncc(C(F)(F)F)c(N2CCCC(C)(O)C2)n1` (stereo not shown) [I-928] are “A (A (>75% o))” and under 100 nM.
Take `Cc1cc(S(=O)(=O)NC2CCC(CN3CCN(c4cccc(C5CCC(=O)NC5=O)c4)CC3)CC2)ccc1Nc1ncc(C(F)(F)F)c(N2CCCC(C)(O)C2)n1` (stereo not shown) [I-929]: the “CDK2 degradation 14 h: Average Dmax %” value is recorded as “C (C (>25% -50%))” and the half-maximal degradation concentration (DC50) was over 1000 nM.
As to `Cc1cc(S(=O)(=O)NC2CCC(N3CCN(c4ccc(C5CCC(=O)NC5=O)c(Cl)c4)CC3)CC2)ccc1Nc1ncc(C(F)(F)F)c(N2CCCC(C)(O)C2)n1` (stereo not shown) [I-930], the “CDK2 degradation 14 h: Average Dmax %” value is on record as “A (A (>75% o))” and the 50% degradation concentration (DC50) was under 100 nM.
In the same order, the values of `Cc1cc(S(=O)(=O)NC2CCC(CN3CCN(c4c(F)cc(C5CCC(=O)NC5=O)cc4F)CC3)CC2)ccc1Nc1ncc(C(F)(F)F)c(N2CCCC(C)(O)C2)n1` (stereo not shown) [I-935] are “A (A (>75% o))” and under 100 nM.
In the same order, the values of `Cc1cc(S(=O)(=O)NC2CCC(CN3CCN(c4cccc(C5CCC(=O)NC5=O)c4)CC3)CC2)ccc1Nc1ncc2c(n1)N(C1CCCC(O)C1)C(=O)C21CC1` (stereo not shown) [I-938] are “C (C (>25% -50%))” and over 1000 nM.
As to `Cc1cc(S(=O)(=O)NC2CCC(CCN3CCN(c4ccc(C5CCC(=O)NC5=O)cc4F)CC3)CC2)ccc1Nc1ncc2c(n1)N(C1CCCC(O)C1)C(=O)C21CC1` (stereo not shown) [I-939], the “CDK2 degradation 14 h: Average Dmax %” value was “B (B (>50% -75%))” and the DC50 was under 100 nM.
In the same order, the values of `Cc1cc(S(=O)(=O)NC2CCC(CN3CCN(c4cc(C)c(C5CCC(=O)NC5=O)cc4F)CC3)CC2)ccc1Nc1ncc(C(F)(F)F)c(N2CCCC(C)(O)C2)n1` (stereo not shown) [I-940] are “A (A (>75% o))” and under 100 nM.
In the same order, the values of `Cc1cc(S(=O)(=O)NC2CCC(CN3CCN(c4c(F)cc(C5CCC(=O)NC5=O)cc4Cl)CC3)CC2)ccc1Nc1ncc(C(F)(F)F)c(N2CCCC(C)(O)C2)n1` (stereo not shown) [I-941] are “A (A (>75% o))” and under 100 nM.
`Cc1cc(S(=O)(=O)NC2CCC(OC3CCN(c4ccc(C5CCC(=O)NC5=O)cc4F)CC3)CC2)ccc1Nc1ncc(C(F)(F)F)c(N2CCCC(C)(O)C2)n1` (stereo not shown) [I-942]: the “CDK2 degradation 14 h: Average Dmax %” value is on record as “A (A (>75% o))” and the DC50 is under 100 nM.
For `CC1(O)CCCN(c2nc(Nc3ccc(S(=O)(=O)NC4CCC(CN5CCN(c6ccc(C7CCC(=O)NC7=O)c(F)c6)CC5)CC4)cc3)ncc2C(F)(F)F)C1` (stereo not shown) [I-943], the “CDK2 degradation 14 h: Average Dmax %” value is listed as “A (A (>75% o))” and the DC50 was under 100 nM.
In the same order, the values of `CC1(O)CCCN(c2nc(Nc3ccc(S(=O)(=O)NC4CCC(CN5CCN(c6ccc(C7CCC(=O)NC7=O)c(F)c6)CC5)CC4)cc3C(F)F)ncc2C(F)(F)F)C1` (stereo not shown) [I-944] are “A (A (>75% o))” and under 100 nM.
In the same order, the values of `Cc1cc(S(=O)(=O)NC2CCC(CN3CCN(c4ccc5c(c4)n(C4CC4)c(=O)n5C4CCC(=O)NC4=O)CC3)CC2)ccc1Nc1ncc2c(n1)N(C1CCCC(O)C1)C(=O)C21CC1` (stereo not shown) [I-947] are “A (A (>75% o))” and under 100 nM.
With `Cc1cc(S(=O)(=O)NC2CCN(CC3CCN(c4c(F)ccc5c4n(C)c(=O)n5C4CCC(=O)NC4=O)CC3)CC2F)ccc1Nc1ncc2c(n1)N(C1CCCC(O)C1)C(=O)C21CC1` (stereo not shown) [I-949], the “CDK2 degradation 14 h: Average Dmax %” value is on record as “A (A (>75% o))” and the DC50 was under 100 nM.
In the same order, the values of `O=C1CCC(c2ccc(N3CCC(CN4CCC(NS(=O)(=O)c5ccc(Nc6ncc7c(n6)N(C6CCCC(O)C6)C(=O)C76CC6)c(F)c5)C(F)C4)CC3)cc2F)C(=O)N1` (stereo not shown) [I-950] are “A (A (>75% o))” and under 100 nM.
Regarding `Cc1cc(S(=O)(=O)NC2CCC(CN3CCN(c4ccc(C5CCC(=O)NC5=O)cc4F)CC3C)CC2)ccc1Nc1ncc2c(n1)N(C1CCCC(O)C1)C(=O)C21CC1` (stereo not shown) [I-966], the “CDK2 degradation 14 h: Average Dmax %” value is “A (A (>75% o))” and the DC50 was under 100 nM.
In the same order, the values of `Cn1nc(N2CCC(=O)NC2=O)c2ccc(C3CCN(Cc4cccc(S(=O)(=O)N5CCC(Nc6ncc7ccc(=O)n(C8CCCC8)c7n6)CC5)c4)CC3)cc21` [I-968] are “A (A (>75% o))” and under 100 nM.
With `Cc1cc(S(=O)(=O)N2CCC(CN(C)C3CCN(c4cccc5c4n(C)c(=O)n5C4CCC(=O)NC4=O)CC3)CC2)ccc1Nc1nc(OC2CCCCC2)c2nc[nH]c2n1` (stereo not shown) [I-970], the “CDK2 degradation 14 h: Average Dmax %” value is given as “A (A (>75% o))” and the DC50 was under 100 nM.
In the same order, the values of `Cc1cc(S(=O)(=O)NCCOCCOCCCc2ccc3c(c2)n(C)c(=O)n3C2CCC(=O)NC2=O)ccc1Nc1ncc2c(n1)N(C1CCCC1)C(=O)C21CC1` (stereo not shown) [I-972] are “B (B (>50% -75%))” and under 100 nM.
Take `Cc1cc(S(=O)(=O)NCCOCCOCCOCCOCCCc2ccc3c(c2)n(C)c(=O)n3C2CCC(=O)NC2=O)ccc1Nc1ncc2ccc(=O)n(C3CCCC3)c2n1` (stereo not shown) [I-973]: the “CDK2 degradation 14 h: Average Dmax %” value is reported as “A (A (>75% o))” and the DC50 was under 100 nM.
In the same order, the values of `Cc1cc(S(=O)(=O)NCCOCCOCCOCCOCCCc2ccc3c(c2)n(C)c(=O)n3C2CCC(=O)NC2=O)ccc1Nc1ncc2c(n1)N(C1CCCC1)C(=O)C21CC1` (stereo not shown) [I-974] are “A (A (>75% o))” and under 100 nM.

As usually defined, the DC50 is the concentration giving 50% degradation.
